# In US20260226084A1, “DUAL RAF AND TUBULIN INHIBITORS AND METHODS OF USE THEREOF” (Deciphera Pharmaceuticals, LLC, priority 2023, published 2026):
# pIC50: −log10 of the molar value. Like-named read-outs stand apart in the source and are kept apart here.
# Tests used:
# [1] = target: T1, B-Raf kinase (SEQ ID NO: 1) (Homo sapiens, UniProt P15056); test: Biochemical Assay for B-Raf (coupled pyruvate kinase/lactate dehydrogenase assay); conditions: 1 mM ATP; read-out: BRAF (inhibition of biochemical activity, IC50)
# T1 construct: GST (N); purchased Sigma
# [2] = target: T2, C-Raf kinase (SEQ ID NO: 2) (Homo sapiens, UniProt P04049, Y340D/Y341D); test: Biochemical Assay for C-Raf (coupled pyruvate kinase/lactate dehydrogenase assay); conditions: 1 mM ATP; read-out: CRAF (inhibition of biochemical activity, IC50)
# T2 construct: C-Raf residues 306-end; Y340D, Y341D with; GST (N); purchased Sigma
# MiaPaca-2 cells = test: MiaPaca-2 Cell Proliferation Assay; format: cell-based; conditions: Table 2, read-out: Inhibition of cell proliferation in MiaPaca-2 (IC50 class)
# Outline: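 Viability was read as resazurin fluorescence (540 nm excitation, 600 nm emission) after 5–6 h with dye. Compounds were tested as serial dilutions in triplicate, with IC50 derived from the dose–response.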
# HCT-116 cells = test: HCT-116 Cell Proliferation Assay; format: cell-based; conditions: Table 2, read-out: Inhibition of cell proliferation in HCT-116 (IC50 class)
# Outline: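 HCT-116 cells, 375/well in McCoy's 5A with 10% FBS, exposed to serial compound dilutions in triplicate for 67 to 72 hours at 37 °C. Viability read by resazurin fluorescence (ex 540/em 600 nm) after a further 4 to 5 h; IC50 values calculated.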
# HPAF-II cells = test: HPAF-II Cell Proliferation Assay; format: cell-based; conditions: HPAF-II cells, Table 2, read-out: Inhibition of cell proliferation in HPAF-II (IC50 class)
# Outline: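 HPAF-II cells (750/well) in complete MEM with 10% FBS were exposed to serially diluted compound in triplicate for 115–120 h at 37 °C, 5% CO2. Resazurin was then added for 18–24 h more; fluorescence (ex 540/em 600 nm) gave IC50.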
# Pa16c cells = test: Pa16c Cell Proliferation Assay; format: cell-based; conditions: Table 2, read-out: Inhibition of cell proliferation in Pa16c (IC50 class)
# Outline: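 Mouse Pa16c cells, 750/well in DMEM with 10% FBS, exposed to serially diluted compound in triplicate for 67 to 72 h at 37° C. Viability read by resazurin reduction over a further 18 to 24 h (ex 540/em 600 nm). IC50 calculated from the dose-response.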
# [3] = Homo sapiens, MIA PaCa-2, MiaPaca-2 cells
# [4] = Homo sapiens, HCT-116, HCT-116 cells
# T2 sequence (P04049 307-648 Y340D/Y341D): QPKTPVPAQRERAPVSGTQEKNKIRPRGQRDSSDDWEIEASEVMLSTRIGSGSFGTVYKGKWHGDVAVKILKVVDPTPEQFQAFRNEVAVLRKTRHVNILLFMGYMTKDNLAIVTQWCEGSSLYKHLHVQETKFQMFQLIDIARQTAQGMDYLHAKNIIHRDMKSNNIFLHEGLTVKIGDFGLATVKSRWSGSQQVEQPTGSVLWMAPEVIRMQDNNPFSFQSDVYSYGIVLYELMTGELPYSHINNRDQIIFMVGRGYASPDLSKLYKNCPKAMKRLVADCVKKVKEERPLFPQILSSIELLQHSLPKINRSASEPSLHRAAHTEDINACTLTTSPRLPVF
# T1 sequence (P15056 416-766): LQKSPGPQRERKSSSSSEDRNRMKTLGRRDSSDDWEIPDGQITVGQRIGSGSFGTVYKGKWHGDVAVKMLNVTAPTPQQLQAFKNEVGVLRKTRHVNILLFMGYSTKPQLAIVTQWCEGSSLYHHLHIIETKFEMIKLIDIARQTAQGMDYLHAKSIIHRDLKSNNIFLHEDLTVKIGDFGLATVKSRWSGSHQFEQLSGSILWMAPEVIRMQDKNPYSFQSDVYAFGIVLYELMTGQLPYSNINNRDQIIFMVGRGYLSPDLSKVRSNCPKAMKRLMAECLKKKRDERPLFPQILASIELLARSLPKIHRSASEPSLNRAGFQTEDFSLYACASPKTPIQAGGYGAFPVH
Structure (SMILES),pIC50 [1],pIC50 [2],pIC50 (MiaPaca-2 cells; [3]),pIC50 (HCT-116 cells; [4]),"pIC50 (HPAF-II cells; Homo sapiens, HPAF-II)",pIC50 (Pa16c cells),pIC50 (MiaPaca-2 cells; MiaPaca-2 cells),pIC50 (HCT-116 cells; HCT-116 cells),pIC50 (HPAF-II cells)
Cc1ccc(NC(=O)c2cc(C(F)(F)F)cnn2)cc1-c1ccnc(-c2ccnc(NC(=O)CN(C)C)c2)c1 [Example 52],> 7.00,> 7.00,6.30 to 7.00,6.30 to 7.00,6.30 to 7.00,6.00 to 6.30,,,
Cc1ccc(NC(=O)c2cc(C(F)(F)F)cnn2)cc1-c1ccnc(-c2ccnc(NCC(F)(F)F)c2)c1 [Example 53],6.00 to 6.30,6.00 to 6.30,6.30 to 7.00,6.30 to 7.00,6.30 to 7.00,5.00 to 6.00,,,
Cc1ccc(NC(=O)c2cc(C(F)(F)F)cnn2)cc1-c1ccnc(-c2ccnc(NC(C)C)c2)c1 [Example 54],5.00 to 6.00,5.00 to 6.00,6.30 to 7.00,6.30 to 7.00,6.30 to 7.00,6.30 to 7.00,,,
Cc1ccc(NC(=O)c2cc(C(C)C)cnn2)cc1-c1cncc(-c2ccnc(NC(=O)C3CC3)c2)c1 [Example 55],> 7.00,> 7.00,6.00 to 6.30,> 7.00,6.30 to 7.00,5.00 to 6.00,,,
Cc1ccc(NC(=O)c2cnc(C(F)(F)F)cn2)cc1-c1ccnc(-c2ccnc(NC(=O)C3CC3)c2)c1 [Example 56],6.30 to 7.00,> 7.00,6.00 to 6.30,6.00 to 6.30,5.00 to 6.00,5.00 to 6.00,,,
Cc1ccc(NC(=O)c2ccc(C(F)F)nn2)cc1-c1ccnc(-c2ccnc(NC(=O)C3CC3)c2)c1 [Example 58],6.00 to 6.30,6.30 to 7.00,6.30 to 7.00,> 7.00,6.30 to 7.00,5.00 to 6.00,,,
Cc1cc(F)c(NC(=O)c2cc(C(F)(F)F)cnn2)cc1-c1ccnc(-c2ccnc(NC(=O)C3CC3)c2)c1 [Example 60],> 7.00,> 7.00,5.00 to 6.00,6.30 to 7.00,5.00 to 6.00,5.00 to 6.00,,,
Cc1ccc(NC(=O)c2cncc(C(F)(F)F)n2)cc1-c1cncc(-c2cc(NC(=O)C3CC3)ncn2)c1 [Example 61],> 7.00,> 7.00,5.00 to 6.00,> 7.00,5.00 to 6.00,5.00 to 6.00,,,
Cc1ccc(NC(=O)c2cc(C(C)(C)F)cnn2)cc1-c1cncc(-c2cc(NC(=O)C3CC3)ncn2)c1 [Example 62],> 7.00,> 7.00,6.30 to 7.00,> 7.00,> 7.00,6.00 to 6.30,,,
Cc1ccc(NC(=O)c2cc(C(C)(F)F)cnn2)cc1-c1cncc(-c2cc(NC(=O)C3CC3)ncn2)c1 [Example 63],> 7.00,> 7.00,6.30 to 7.00,> 7.00,6.30 to 7.00,6.00 to 6.30,,,
Cc1ccc(NC(=O)c2cc(C(C)C)cnn2)cc1-c1cncc(-c2cc(NC(=O)C3CC3)ncn2)c1 [Example 64],> 7.00,> 7.00,6.00 to 6.30,6.30 to 7.00,6.30 to 7.00,6.30 to 7.00,,,
Cc1ccc(NC(=O)c2cncc(C(C)(C)F)c2)cc1-c1cncc(-c2cc(NC(=O)C3CC3)ncn2)c1 [Example 68],> 7.00,> 7.00,6.30 to 7.00,> 7.00,> 7.00,6.00 to 6.30,,,
Cc1ccc(NC(=O)c2cc(C3CC3)cnn2)cc1-c1cncc(-c2cc(NC(=O)C3CC3)ncn2)c1 [Example 69],> 7.00,> 7.00,5.00 to 6.00,6.30 to 7.00,6.00 to 6.30,5.00 to 6.00,,,
Cc1ccc(NC(=O)c2ccc(C(F)F)nc2)cc1-c1ccnc(-c2ccnc(NC(=O)C3CC3)c2)n1 [Example 70],> 7.00,> 7.00,6.30 to 7.00,6.30 to 7.00,6.30 to 7.00,5.00 to 6.00,,,
CC(=O)Nc1cc(-c2cncc(-c3cc(NC(=O)c4cc(C(F)(F)F)cnn4)ccc3C)c2)ncn1 [Example 71],> 7.00,> 7.00,,,,5.00 to 6.00,6.00 to 6.30,6.30 to 7.00,6.00 to 6.30
Cc1ccc(NC(=O)c2ccc(C(F)(F)F)nc2)cc1-c1cncc(-c2ccnc(NC(=O)C3CC3)c2)c1 [Example 72],> 7.00,> 7.00,6.00 to 6.30,6.30 to 7.00,6.00 to 6.30,5.00 to 6.00,,,
Cc1ccc(NC(=O)c2ccc(C(F)(F)F)nc2)cc1-c1cncc(-c2cc(NC(=O)C3CC3)ncn2)c1 [Example 75],> 7.00,> 7.00,5.00 to 6.00,5.00 to 6.00,5.00 to 6.00,5.00 to 6.00,,,
COC(=O)Nc1cc(-c2cncc(-c3cc(NC(=O)c4ccc(C(F)(F)F)nc4)ccc3C)c2)ncn1 [Example 76],> 7.00,> 7.00,,,,5.00 to 6.00,5.00 to 6.00,5.00 to 6.00,5.00 to 6.00
Cc1ccc(NC(=O)c2cncc(C(F)(F)F)c2)cc1-c1ccnc(-c2ccnc(NC(=O)C3CC3)c2)c1 [Example 78],> 7.00,> 7.00,6.00 to 6.30,6.30 to 7.00,6.30 to 7.00,5.00 to 6.00,,,
Cc1ccc(NC(=O)c2ccc(C(F)(F)F)nc2)cc1-c1ccnc(-c2ccnc(NC(=O)C3CC3)c2)c1 [Example 79],> 7.00,> 7.00,,,,6.30 to 7.00,6.30 to 7.00,6.30 to 7.00,6.30 to 7.00
Cc1ccc(NC(=O)c2ccc(C(C)(F)F)nc2)cc1-c1ccnc(-c2ccnc(NC(=O)C3CC3)c2)c1 [Example 80],> 7.00,> 7.00,6.30 to 7.00,6.30 to 7.00,6.30 to 7.00,6.30 to 7.00,,,
Cc1cc(-c2cc(NC(=O)c3cncc(C(F)(F)F)c3)ccc2C)cc(-c2ccnc(NC(=O)C3CC3)c2)n1 [Example 81],> 7.00,> 7.00,,,,5.00 to 6.00,5.00 to 6.00,6.30 to 7.00,5.00 to 6.00
Cc1ccc(NC(=O)c2cncc(C(C)(F)F)c2)cc1-c1ccnc(-c2ccnc(NC(=O)C3CC3)c2)c1 [Example 82],> 7.00,> 7.00,6.00 to 6.30,6.30 to 7.00,6.00 to 6.30,5.00 to 6.00,,,
Cc1ccc(NC(=O)c2cccnn2)cc1-c1ccnc(-c2ccnc(NC(=O)C3CC3)c2)c1 [Example 83],5.00 to 6.00,6.30 to 7.00,5.00 to 6.00,5.00 to 6.00,5.00 to 6.00,5.00 to 6.00,,,
